Measurements from patent US20250188410A1, “NICOTINAMIDE ADENINE DINUCLEOTIDE (NAD+) PRECURSORS, NAD PATHWAY SUBSTRATES COMPOSITIONS AND USES THEREOF” (Colossal Biosciences Inc., priority 2023, published 2025).
Several values for one entry are separate records, joined by “and”; a condition that tells them apart may be missing. Equal entries are not always repeated.

Tests used:
[1] = test system: bovine embryos; assay: Measurement of ICM and outgrowths for day 14 embryos before ICM isolation; format: cell-based; details: PA embryos
[2] = test system: bovine embryos; assay: as above; format: cell-based; details: IVF embryos
Protocol: (§1) After identifying the NAD^+ precursor dosage, experiment 2 was performed. Embryos were cultured in in vitro culture medium (BO-IVC; IVF Biosciences) supplemented with NA or NMN for 7-14 days in air controlled atmosphere (5% CO2 and 5% O2) at 38.5° C. Embryos cultured with NAD^+ precursor were collected at the blastocyst stage (D7) and plated in co-culture with irradiated mouse embryonic fibroblast (MEF) and bovine ESCs medium ([…]) until day 25 for bovine ESCs Derivation: Timeline bESC Derivation: • D0-D7 Incubation of IVF-produced embryos in IVC supplemented with NAD^+ precursor for seven days. • D7 Plating of embryos for ESC derivation on medium […] on Cf1 MEF. Treatment with Y27632 for last 12 hours of culturing. • D14 Mechanically isolate the ICM and transfer to a new plate. […] NMN and Nicotinic Acid (NA, also known as Niacin) were used as the NAD^+ precursors in this experiment. On day 7 of supplementation, blastocysts were collected and plated on MEFs in a […] medium.

[3] = test system: bovine embryos; assay: Presumptive bESC colonies at day 25 by Alkaline Phosphatase staining (bESC derivation); format: cell-based; details: for number of presumptive bESC colonies (increase): IVF and PA groups, supplementation during the first seven days; for number of presumptive bESC colonies (increase) / # colonies per cm^2 / Average (# colonies per cm^2) / Fold vs Control (presumptive bESC colonies): day 25; for # colonies per cm^2 / Average (# colonies per cm^2) / Fold vs Control (presumptive bESC colonies) / Number of AP+ Colonies: IVF; for Number of AP+ Colonies: day 25, 12 well plate
Protocol: as §1

[4] = test system: bovine embryos; assay: as above; format: cell-based; details: PA, replicate 1, 5 seed embryos; for # colonies per cm^2 / Average (# colonies per cm^2) / Fold vs Control (presumptive bESC colonies): day 25; for Number of AP+ Colonies: day 25, 12 well plate
[5] = test system: bovine embryos; assay: Attachment rate of embryos at day 11 of culture on MEFs in bEPSCM (Experiment 2); format: cell-based
[6] = IVM or embryo culture media supplemented with NMN; cited from earlier work
[7] = test system: bovine embryos; assay: Early embryo development of bovine embryos in IVC medium supplemented with NAD+ precursor (Experiment 1); format: cell-based
Protocol: The NAD^+ precursors […] (NMN) or Nicotinic acid […] (NA) (SG; Sigma N7764) were supplemented into in vitro culture medium (BO-IVC; IVF Biosciences), and bovine embryos obtained by in vitro fertilization (IVF) or parthenogenetic activation (PA) were cultured for 7-14 days in air controlled atmosphere (5% CO2 and 5% O2) at 38.5° C. Embryo development was evaluated at day 3 (D3-cleavage rate), day 7 (D7−Blastocyst rate), and day 11 (D11−Hatching rate). In addition, the expansion of hatched blastocysts from day 11-13 was evaluated. Based on this testing (see in Experiment 1 below) suitable dosages of NAD^+ precursors were identified.
Different doses of NMN (125 to 1000 μM) were added to the IVC culture medium containing bovine embryos for up to 14 days. No effect of NAD^+ precursor presence was observed on the cleavage or blastocyst rates for all three replicates (see FIG. 1, FIG. 2A, FIG. 2B, and FIG. 3).

SMILES | AVG Fold (ICM/outgrowth) [1] | AVG ICM [1] | AVG Outgrowth [1] | AVG Fold (ICM/outgrowth) [2] | AVG ICM [2] | AVG Outgrowth [2] | number of presumptive bESC colonies (increase) [3] | # colonies per cm^2 ([3]; replicate 1, 1 seed embryo) | Average (# colonies per cm^2) ([3]; replicate 1, 1 seed embryo) | Fold vs Control (presumptive bESC colonies) ([3]; replicate 1, 1 seed embryo) | Number of AP+ Colonies ([3]; replicate 1, 1 seed embryo) | # colonies per cm^2 ([3]; replicate 2, 5 seed embryos) | Average (# colonies per cm^2) ([3]; replicate 2, 5 seed embryos) | Fold vs Control (presumptive bESC colonies) ([3]; replicate 2, 5 seed embryos) | Number of AP+ Colonies ([3]; replicate 2, 5 seed embryos) | # colonies per cm^2 [4] | Average (# colonies per cm^2) [4] | Fold vs Control (presumptive bESC colonies) [4] | Number of AP+ Colonies [4] | % Attached ([5]; IVF embryos) | other results
O=C(O)c1cccnc1 [NA, nicotinic acid (pyridine-3-carboxylic acid), reference compound] | 0.1303 | 48.9 μm | 436.7 μm | 0.09417 | 76.27 μm | 905.9 μm | increased by three times | 82 and 72.29 and 8 | 54.1 | 2.958 | 287 and 253 and 28 | 33.43 | 33.43 | 3.25 | 117 | 15.14 | 15.14 | 2.944 | 53 | 100% | Fold vs Control (attachment rate) ([5]; IVF embryos): 1.33; % Attached ([5]; PA embryos): 60%; Fold vs Control (attachment rate) ([5]; PA embryos): 3
NC(=O)c1ccc[n+]([C@@H]2O[C@H](COP(=O)([O-])O)[C@@H](O)[C@H]2O)c1 [NMN, nicotinamide mononucleotide] | 0.1845 | 47.2 μm | 458.5 μm | 0.1124 | 58.38 μm | 645.2 μm | increased by three times | 11.14 and 16.29 and 10.86 | 12.76 | 0.6979 | 39 and 57 and 38 | 16.29 | 16.29 | 1.583 | 57 | 12 | 12 | 2.333 | 42 | 100% | maturation or embryo development [6]: no effect; cleavage rate ([7]; NMN 125 to 1000 μM in IVC culture medium, day 3, three replicates): No effect; blastocyst rate ([7]; NMN 125 to 1000 μM in IVC culture medium, day 7, three replicates): No effect; morphology of hatched blastocysts ([7]; supplementation in IVC, day 11 to day 13): beneficially impact; Fold vs Control (attachment rate) ([5]; IVF embryos): 1.33; % Attached ([5]; PA embryos): 60%; Fold vs Control (attachment rate) ([5]; PA embryos): 3
